Measurements taken from patent US8513251B2, “Pyridazinone compounds” (Takeda Pharmaceutical Company Limited, priority 2009, dated 2013).
Where two headings read alike, the source gives them in different places.

Experiments:
[1] = molecular target: T1, Human PDE10A enzyme (Homo sapiens, UniProt Q9Y233); test: PDE enzyme inhibition, SPA (Scintillation Proximity Assay); format: biochemical; conditions: for inhibition at 1 µM: compound at 1 μM, read-out: Percent inhibition (1 μM); for IC50: human PDE10A, [3H]cGMP substrate
T1 construct: Human PDE10A enzyme was generated from Sf9 or COS-7 cells transfected with the full-length gene; His-tag; made in house; host or cells: Sf9 or COS-7 cells
T1 sequence (Q9Y233 267-1055): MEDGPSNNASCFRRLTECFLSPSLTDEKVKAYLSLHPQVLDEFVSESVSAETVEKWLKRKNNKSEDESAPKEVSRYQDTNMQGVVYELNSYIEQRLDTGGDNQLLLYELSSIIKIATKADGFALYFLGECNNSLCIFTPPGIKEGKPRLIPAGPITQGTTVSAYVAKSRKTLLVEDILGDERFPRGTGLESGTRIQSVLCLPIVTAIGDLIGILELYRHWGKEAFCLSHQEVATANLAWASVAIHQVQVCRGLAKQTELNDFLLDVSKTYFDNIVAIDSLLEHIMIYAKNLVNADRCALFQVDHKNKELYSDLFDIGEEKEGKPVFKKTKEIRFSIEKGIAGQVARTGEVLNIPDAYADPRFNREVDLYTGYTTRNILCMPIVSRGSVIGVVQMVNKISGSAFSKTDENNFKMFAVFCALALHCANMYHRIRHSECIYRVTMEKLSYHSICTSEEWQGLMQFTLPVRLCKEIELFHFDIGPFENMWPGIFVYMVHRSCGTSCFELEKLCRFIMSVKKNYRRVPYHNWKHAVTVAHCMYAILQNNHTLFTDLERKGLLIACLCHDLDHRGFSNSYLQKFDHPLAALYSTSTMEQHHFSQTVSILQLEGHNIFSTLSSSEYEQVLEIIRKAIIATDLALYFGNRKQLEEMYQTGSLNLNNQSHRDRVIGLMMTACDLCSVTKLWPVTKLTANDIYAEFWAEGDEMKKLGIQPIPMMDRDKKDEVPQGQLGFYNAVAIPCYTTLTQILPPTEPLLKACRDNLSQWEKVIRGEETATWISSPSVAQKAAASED
Procedure: Human PDE10A enzyme was generated from Sf9 or COS-7 cells transfected with the full-length gene. Cloned enzyme was extracted from homogenized cell pellets. The extracted enzyme from Sf9 cells was partially purified using His-tag affinity column. The enzyme was stored at −70° C. until use. PDE activity was measured using a SPA (Scintillation Proximity Assay) (GE Healthcare). To evaluate the inhibitory activity, 10 μL of serial diluted compounds were incubated with 20 μL of PDE enzyme in assay buffer (50 mM HEPES-NaOH, 8.3 mM MgCl2, 1.7 mM EGTA, 0.1% BSA (pH 7.4)) for 30 min. at room temperature. Final concentration of DMSO in the assay was 1 percent as compounds were tested in duplicate in 96-well half-area plates (Corning). To start the reaction, 10 μL of substrate [3H] cGMP (25 or 50 nM; enclosed in SPA kits from GE Healthcare or purchased from PerkinElmer, respectively) was added for a final assay volume of 40 μL. After 60 min incubation at room temperature, yttrium SPA beads containing Zinc sulphate were added (20 μL at 6 mg/mL) to terminate the PDE reaction. After being settled for 60 min., assay plates were counted in a scintillation counter (PerkinElmer) to allow calculation of inhibition rate and IC50. Inhibition rate was calculated on the basis of 0% control wells with DMSO and 100% control wells without enzyme.

[2] = system: Male ICR mice; test: Improvement of MK-801-induced prepulse inhibition (PPI) deficits; format: in vivo; conditions: 82 dB prepulse; i.p. 30 min before testing; MK-801 0.3 mg/kg s.c. (FIG. 3)
Source text: Male ICR mice were supplied by CLEA Japan, Inc (Japan). After arrival to the vivarium, animals were allowed a minimum of 1 week for acclimation. They were housed under a 12:12-h light/dark cycle in a temperature- and humidity-controlled laboratory and allowed food and water ad libitum. The care and use of the animals and the experimental protocols used in this research were approved by the Experimental Animal Care and Use Committee of Takeda Pharmaceutical Company, Ltd (Osaka, Japan).
The compounds were suspended in 0.5% methylcellulose in saline or distilled water, and administered by intraperitoneally (i.p.) or orally (p.o.), respectively. Methamphetamine (Dainippon Sumitomo Pharma Co., Ltd.) and MK-801 (Sigma-Aldrich, St Louis, Mo.) were dissolved in saline, and administered subcutaneously (s.c.). […]
PPI is a measure of sensorimotor gating and is one of a few neuropsychological measures in which humans and rodents can be evaluated in a similar fashion (Psychopharmacology (Berl) 2001, vol. 156: 117-154). We evaluated whether compound could reverse PPI deficits induced by MK-801 using male ICR mice. […] Placement of mice inside the cylinders allowed the whole-body startle responses induced by the acoustic stimuli to be measured via the transduction of movement into analog signals by a piezoelectric unit attached to the platform. […]

[3] = Table 1, compound at 0.1 μM as noted in cell, read-out: Percent inhibition (at 0.1 μM)

Row | Compound | inhibition at 1 µM ([1]; Table 1) | IC50 ([1]; Table 1) | melting point | inhibition at 0.1 µM [1, 3] | inhibition at 0.1 µM ([1]; Table 2, compound at 0.1 μM, read-out: Percent inhibition (0.1 μM)) | IC50 ([1]; Table 2) | MK-801-induced PPI deficits [2]
1 | O=c1ccn(-c2cccc(C(F)(F)F)c2)nc1-c1ccnn1-c1ccccc1 [Example 10, 3-(1-Phenyl-1H-pyrazol-5-yl)-1-[3-(trifluoromethyl)phenyl]pyridazin-4(1H)-one] | 98% | 10 to 200 nM | 156 to 157 °C | – | – | – | –
2 | COc1ccccc1-n1ccc(=O)c(-c2ccnn2-c2ccccc2)n1 [Example 13, 1-(2-Methoxyphenyl)-3-(1-phenyl-1H-pyrazol-5-yl)pyridazin-4(1H)-one] | 96% | 10 to 200 nM | 153 to 154 °C | – | – | – | –
3 | O=c1ccn(-c2cccc(F)c2)nc1-c1ccnn1-c1ccccc1 [Example 15, 1-(3-Fluorophenyl)-3-(1-phenyl-1H-pyrazol-5-yl)pyridazin-4(1H)-one] | 97% | 10 to 200 nM | 170 to 171 °C | – | – | – | –
4 | O=c1ccn(-c2ccccc2F)nc1-c1ccnn1-c1ccccc1 [Example 16, 1-(2-Fluorophenyl)-3-(1-phenyl-1H-pyrazol-5-yl)pyridazin-4(1H)-one] | 97% | 10 to 200 nM | 124 to 125 °C | – | – | – | –
5 | O=c1ccn(-c2ccc(F)cc2)nc1-c1ccnn1-c1ccccc1 [Example 17, 1-(4-Fluorophenyl)-3-(1-phenyl-1H-pyrazol-5-yl)pyridazin-4(1H)-one] | 97% | 10 to 200 nM | 252 to 253 °C | – | – | – | –
6 | O=c1ccn(-c2ccc(N3CCOCC3)cc2)nc1-c1ccnn1-c1ccccc1 [Example 23, 1-(4-Morpholin-4-ylphenyl)-3-(1-phenyl-1H-pyrazol-5-yl)pyridazin-4(1H)-one] | 102% | < 10 nM | 205 to 206 °C | – | – | – | –
7 | O=c1ccn(-c2ccccc2OC(F)F)nc1-c1ccnn1-c1ccccc1 [Example 26, 1-[2-(Difluoromethoxy)phenyl]-3-(1-phenyl-1H-pyrazol-5-yl)pyridazin-4(1H)-one] | 97% | 10 to 200 nM | 123 to 124 °C | – | – | – | –
8 | O=c1ccn(-c2cccnc2)nc1-c1ccnn1-c1ccccc1 [Example 30, 3-(1-Phenyl-1H-pyrazol-5-yl)-1-pyridin-3-ylpyridazin-4(1H)-one] | – | 10 to 200 nM | 176 to 177 °C | 87% | – | – | –
9 | O=c1ccn(-c2ccccc2Cl)nc1-c1ccnn1-c1ccccc1 [Example 32, 1-(2-Chlorophenyl)-3-(1-phenyl-1H-pyrazol-5-yl)pyridazin-4(1H)-one] | 89% | 10 to 200 nM | 138 to 139 °C | – | – | – | –
10 | CS(=O)(=O)c1cccc(-n2ccc(=O)c(-c3ccnn3-c3ccccc3)n2)c1 [Example 36, 1-[3-(Methylsulfonyl)phenyl]-3-(1-phenyl-1H-pyrazol-5-yl)pyridazin-4(1H)-one] | – | < 10 nM | 199 to 200 °C | 90% | – | – | –
11 | O=c1ccn(-c2cccc(S(=O)(=O)c3nc4ccccc4[nH]3)c2)nc1-c1ccnn1-c1ccccc1 [Example 39, 1-[3-(1H-Benzimidazol-2-ylsulfonyl)phenyl]-3-(1-phenyl-1H-pyrazol-5-yl)pyridazin-4(1H)-one] | 98% | < 10 nM | 160 to 161 °C | – | – | – | –
12 | COc1cn(-c2ccccc2F)nc(-c2ccnn2-c2ccccc2)c1=O [Example 52, 1-(2-Fluorophenyl)-5-methoxy-3-(1-phenyl-1H-pyrazol-5-yl)pyridazin-4(1H)-one] | 99% | < 10 nM | 163 to 165 °C | – | – | – | –
13 | COc1cn(-c2cccc(C(F)(F)F)c2)nc(-c2ccnn2-c2ccccc2)c1=O [Example 54, 5-Methoxy-3-(1-phenyl-1H-pyrazol-5-yl)-1-[3-(trifluoromethyl)phenyl]pyridazin-4(1H)-one] | 100% | < 10 nM | 139 to 141 °C | – | – | – | –
14 | COc1cn(-c2ccc(N3CCOCC3)cc2F)nc(-c2ccnn2-c2ccccc2)c1=O [Example 57, 1-(2-Fluoro-4-morpholin-4-ylphenyl)-5-methoxy-3-(1-phenyl-1H-pyrazol-5-yl)pyridazin-4(1H)-one] | 101% | < 10 nM | 226 to 228 °C | – | – | – | –
15 | O=c1c(OC(F)F)cn(-c2ccccc2F)nc1-c1ccnn1-c1ccccc1 [Example 64, 5-(Difluoromethoxy)-1-(2-fluorophenyl)-3-(1-phenyl-1H-pyrazol-5-yl)pyridazin-4(1H)-one] | 94% | 10 to 200 nM | 109 to 114 °C | – | – | – | –
16 | COc1cn(-c2ccc(N3CCC3=O)cc2F)nc(-c2ccnn2-c2ccccc2)c1=O [Example 107, 1-[2-Fluoro-4-(2-oxoazetidin-1-yl)phenyl]-5-methoxy-3-(1-phenyl-1H-pyrazol-5-yl)pyridazin-4(1H)-one] | – | – | 189 to 194 °C | – | 104% | < 10 nM | –
17 | Cc1nc2n(c(=O)c1CCN1CCC(c3noc4cc(F)ccc34)CC1)CCCC2 [Risperidone] | – | – | – | – | – | – | significantly reversed
